Measured values taken from paper PMC4158420, “Crenactin from Pyrobaculum calidifontis is closely related to actin in structure and forms steep helical filaments” (Febs Letters, 2014).

Target: T1, crenactin (Pc crenactin) (Pyrobaculum calidifontis, UniProt A3MWN5)
T1 construct: gene cren-1; full length 1-432, codon-optimised, expressed in E. coli as His6-SUMO fusion, tag cleaved by SENP1 with no residues added or removed; helical filament in crystal
Assay: X-ray crystallography, […] Å
Assay type: binding
Conditions: crystals from 100 mM phosphate/citrate pH 4.2, 200 mM lithium sulfate, 20% PEG 1000; one ADP per subunit, 0 Mg; nucleotide cleft between domains I and II

T1 sequence (A3MWN5 whole entry, the tested form may be a part): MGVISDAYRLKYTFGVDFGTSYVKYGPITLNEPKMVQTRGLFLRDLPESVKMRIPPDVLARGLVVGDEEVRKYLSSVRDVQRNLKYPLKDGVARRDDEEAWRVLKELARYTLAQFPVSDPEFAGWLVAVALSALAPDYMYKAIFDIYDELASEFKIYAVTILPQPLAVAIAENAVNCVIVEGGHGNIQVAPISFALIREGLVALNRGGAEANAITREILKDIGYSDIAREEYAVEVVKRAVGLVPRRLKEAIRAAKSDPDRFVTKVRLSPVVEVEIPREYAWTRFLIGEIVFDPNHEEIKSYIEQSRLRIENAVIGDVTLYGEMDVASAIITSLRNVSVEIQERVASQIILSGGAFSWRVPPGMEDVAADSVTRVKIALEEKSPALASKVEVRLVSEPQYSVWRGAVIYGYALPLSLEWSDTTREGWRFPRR

Nc1ncnc2c1ncn2[C@@H]1O[C@H](COP(=O)(O)OP(=O)(O)O)[C@@H](O)[C@H]1O [ADP]
X-ray crystallography, 3.2 Å: one molecule of ADP was located and added in each crenactin subunit
